These compounds were tested on MCH receptors (assay: MCH receptor activity class (method not given)). Settings: activity class per percent of control at 10^-7 M or IC50.

Structure (SMILES) | class
COc1cc(CN[C@H]2CC[C@@H](Nc3cc(N(C)C)c4ccccc4n3)CC2)cc(OC)c1 [compound 1101] | 3 (Class 3 The value of percent of control at 10^−7 M was more than 60% or the value of IC50 was more than 200 nM.)
COc1cc(CN[C@H]2CC[C@@H](Nc3cc(N(C)C)c4ccccc4n3)CC2)cc(I)c1O [compound 1102] | 3 (Class 3 The value of percent of control at 10^−7 M was more than 60% or the value of IC50 was more than 200 nM.)
Cc1cc(CN[C@H]2CC[C@@H](Nc3cc(N(C)C)c4ccccc4n3)CC2)cc(C)c1O [compound 1103] | 3 (Class 3 The value of percent of control at 10^−7 M was more than 60% or the value of IC50 was more than 200 nM.)
COc1cccc(CN[C@H]2CC[C@@H](Nc3cc(N(C)C)c4ccccc4n3)CC2)c1 [compound 1104] | 3 (Class 3 The value of percent of control at 10^−7 M was more than 60% or the value of IC50 was more than 200 nM.)
CN(C)c1cc(N[C@H]2CC[C@@H](NCc3ccc(F)c(Br)c3)CC2)nc2ccccc12 [compound 1105] | 3 (Class 3 The value of percent of control at 10^−7 M was more than 60% or the value of IC50 was more than 200 nM.)
Cc1ccc2occ(CN[C@H]3CC[C@@H](Nc4cc(N(C)C)c5ccccc5n4)CC3)c(=O)c2c1 [compound 1107] | 3 (Class 3 The value of percent of control at 10^−7 M was more than 60% or the value of IC50 was more than 200 nM.)
Cc1cc(C)c2occ(CN[C@H]3CC[C@@H](Nc4cc(N(C)C)c5ccccc5n4)CC3)c(=O)c2c1 [compound 1108] | 3 (Class 3 The value of percent of control at 10^−7 M was more than 60% or the value of IC50 was more than 200 nM.)
Cc1cc(CN[C@H]2CC[C@@H](Nc3cc(N(C)C)c4ccccc4n3)CC2)c(C)n1-c1ccccc1 [compound 1109] | 3 (Class 3 The value of percent of control at 10^−7 M was more than 60% or the value of IC50 was more than 200 nM.)
CC(CN[C@H]1CC[C@@H](Nc2cc(N(C)C)c3ccccc3n2)CC1)c1ccccc1 (stereo partly drawn) [compound 1110, N4,N4-dimethyl-N2-{cis-4-[(2-phenylpropyl)amino]cyclohexy}quinoline-2,4-diamine] | 3 (Class 3 The value of percent of control at 10^−7 M was more than 60% or the value of IC50 was more than 200 nM.)
CCCCC/C(=C\c1ccccc1)CN[C@H]1CC[C@@H](Nc2cc(N(C)C)c3ccccc3n2)CC1 [compound 1111] | 3 (Class 3 The value of percent of control at 10^−7 M was more than 60% or the value of IC50 was more than 200 nM.)
COc1ccccc1/C=C/CN[C@H]1CC[C@@H](Nc2cc(N(C)C)c3ccccc3n2)CC1 [compound 1112] | 3 (Class 3 The value of percent of control at 10^−7 M was more than 60% or the value of IC50 was more than 200 nM.)
CN(C)c1cc(N[C@H]2CC[C@@H](NCc3coc4ccc(Cl)cc4c3=O)CC2)nc2ccccc12 [compound 1113] | 3 (Class 3 The value of percent of control at 10^−7 M was more than 60% or the value of IC50 was more than 200 nM.)
CN(C)c1cc(N[C@H]2CC[C@@H](NCc3cncc(-c4ccc(F)cc4)c3)CC2)nc2ccccc12 [compound 1114] | 3 (Class 3 The value of percent of control at 10^−7 M was more than 60% or the value of IC50 was more than 200 nM.)
CCOC(=O)c1[nH]c2cc(Cl)cc(Cl)c2c1CN[C@H]1CC[C@@H](Nc2cc(N(C)C)c3ccccc3n2)CC1 [compound 1115] | 1 (Class 1: The value of percent of control at 10^−7 M was less than 40% or the value of IC50 was less than 50 nM.)
COC(=O)c1ccccc1Sc1nc2sccn2c1CN[C@H]1CC[C@@H](Nc2cc(N(C)C)c3ccccc3n2)CC1 [compound 1116] | 3 (Class 3 The value of percent of control at 10^−7 M was more than 60% or the value of IC50 was more than 200 nM.)
CN(C)c1cc(N[C@H]2CC[C@@H](NCc3c[nH]nc3-c3ccc(F)cc3)CC2)nc2ccccc12 [compound 1117] | 3 (Class 3 The value of percent of control at 10^−7 M was more than 60% or the value of IC50 was more than 200 nM.)
CSc1ccc(CN[C@H]2CC[C@@H](Nc3cc(N(C)C)c4ccccc4n3)CC2)cc1 [compound 1118] | 3 (Class 3 The value of percent of control at 10^−7 M was more than 60% or the value of IC50 was more than 200 nM.)
CN(C)c1cc(N[C@H]2CC[C@@H](NCc3cccc4ccccc34)CC2)nc2ccccc12 [compound 1119] | 3 (Class 3 The value of percent of control at 10^−7 M was more than 60% or the value of IC50 was more than 200 nM.)
COc1cc(CN[C@H]2CC[C@@H](Nc3cc(N(C)C)c4ccccc4n3)CC2)ccc1O [compound 1120] | 3 (Class 3 The value of percent of control at 10^−7 M was more than 60% or the value of IC50 was more than 200 nM.)
CN(C)c1cc(N[C@H]2CC[C@@H](NCc3ccc(F)c(Cl)c3)CC2)nc2ccccc12 [compound 1121] | 3 (Class 3 The value of percent of control at 10^−7 M was more than 60% or the value of IC50 was more than 200 nM.)
COc1cccc(OC)c1CNC[C@H]1CC[C@@H](Nc2cc(N(C)C)c3ccccc3n2)CC1 [compound 1122] | 2 (Class 2: The value of percent of control at 10^−7 M was from 40% to 60% or the value of IC′50 was from 50 nM to 200 nM.)
CCOc1ccccc1CNC[C@H]1CC[C@@H](Nc2cc(N(C)C)c3ccccc3n2)CC1 [compound 1123] | 2 (Class 2: The value of percent of control at 10^−7 M was from 40% to 60% or the value of IC′50 was from 50 nM to 200 nM.)

Structure (SMILES) | class
CN(C)c1cc(N[C@H]2CC[C@@H](CNCc3c[nH]c4ccccc34)CC2)nc2ccccc12 [compound 1124] | 3 (Class 3 The value of percent of control at 10^−7 M was more than 60% or the value of IC50 was more than 200 nM.)
COc1ccc(OC)c(CNC[C@H]2CC[C@@H](Nc3cc(N(C)C)c4ccccc4n3)CC2)c1 [compound 1125] | 3 (Class 3 The value of percent of control at 10^−7 M was more than 60% or the value of IC50 was more than 200 nM.)
COc1ccc(CNC[C@H]2CC[C@@H](Nc3cc(N(C)C)c4ccccc4n3)CC2)c2ccccc12 [compound 1126] | 2 (Class 2: The value of percent of control at 10^−7 M was from 40% to 60% or the value of IC′50 was from 50 nM to 200 nM.)
COc1ccc2[nH]cc(CNC[C@H]3CC[C@@H](Nc4cc(N(C)C)c5ccccc5n4)CC3)c2c1 [compound 1127] | 3 (Class 3 The value of percent of control at 10^−7 M was more than 60% or the value of IC50 was more than 200 nM.)
COc1ccc2ccccc2c1CNC[C@H]1CC[C@@H](Nc2cc(N(C)C)c3ccccc3n2)CC1 [compound 1128] | 3 (Class 3 The value of percent of control at 10^−7 M was more than 60% or the value of IC50 was more than 200 nM.)
COc1cc(Br)cc(CNC[C@H]2CC[C@@H](Nc3cc(N(C)C)c4ccccc4n3)CC2)c1O [compound 1129] | 2 (Class 2: The value of percent of control at 10^−7 M was from 40% to 60% or the value of IC′50 was from 50 nM to 200 nM.)
CN(C)c1cc(N[C@H]2CC[C@@H](CNCc3c[nH]c4ccc(Br)cc34)CC2)nc2ccccc12 [compound 1130] | 2 (Class 2: The value of percent of control at 10^−7 M was from 40% to 60% or the value of IC′50 was from 50 nM to 200 nM.)
COc1ccc(CNC[C@H]2CC[C@@H](Nc3cc(N(C)C)c4ccccc4n3)CC2)c(OC)c1 [compound 1131] | 3 (Class 3 The value of percent of control at 10^−7 M was more than 60% or the value of IC50 was more than 200 nM.)
COc1ccc(CNC[C@H]2CC[C@@H](Nc3cc(N(C)C)c4ccccc4n3)CC2)c(OC)c1OC [compound 1132] | 3 (Class 3 The value of percent of control at 10^−7 M was more than 60% or the value of IC50 was more than 200 nM.)
COc1cc(CNC[C@H]2CC[C@@H](Nc3cc(N(C)C)c4ccccc4n3)CC2)cc(OC)c1O [compound 1133] | 3 (Class 3 The value of percent of control at 10^−7 M was more than 60% or the value of IC50 was more than 200 nM.)
CCOc1cc(CNC[C@H]2CC[C@@H](Nc3cc(N(C)C)c4ccccc4n3)CC2)ccc1OC [compound 1134] | 3 (Class 3 The value of percent of control at 10^−7 M was more than 60% or the value of IC50 was more than 200 nM.)
CN(C)c1cc(N[C@H]2CC[C@@H](CNCc3c[nH]nc3-c3ccc(C(F)(F)F)cc3)CC2)nc2ccccc12 [compound 1135] | 3 (Class 3 The value of percent of control at 10^−7 M was more than 60% or the value of IC50 was more than 200 nM.)
COc1cc(CNC[C@H]2CC[C@@H](Nc3cc(N(C)C)c4ccccc4n3)CC2)cc(OC)c1OC [compound 1136] | 3 (Class 3 The value of percent of control at 10^−7 M was more than 60% or the value of IC50 was more than 200 nM.)
COc1cc(CNC[C@H]2CC[C@@H](Nc3cc(N(C)C)c4ccccc4n3)CC2)cc(OC)c1 [compound 1138] | 3 (Class 3 The value of percent of control at 10^−7 M was more than 60% or the value of IC50 was more than 200 nM.)
COc1cc(CNC[C@H]2CC[C@@H](Nc3cc(N(C)C)c4ccccc4n3)CC2)cc(I)c1O [compound 1139] | 3 (Class 3 The value of percent of control at 10^−7 M was more than 60% or the value of IC50 was more than 200 nM.)
Cc1cc(CNC[C@H]2CC[C@@H](Nc3cc(N(C)C)c4ccccc4n3)CC2)cc(C)c1O [compound 1140] | 3 (Class 3 The value of percent of control at 10^−7 M was more than 60% or the value of IC50 was more than 200 nM.)
COc1ccc(CNC[C@H]2CC[C@@H](Nc3cc(N(C)C)c4ccccc4n3)CC2)cc1 [compound 1141] | 3 (Class 3 The value of percent of control at 10^−7 M was more than 60% or the value of IC50 was more than 200 nM.)
CN(C)c1cc(N[C@H]2CC[C@@H](CNCc3ccc4c(c3)OCCO4)CC2)nc2ccccc12 [compound 1142] | 3 (Class 3 The value of percent of control at 10^−7 M was more than 60% or the value of IC50 was more than 200 nM.)
CN(C)c1cc(N[C@H]2CC[C@@H](CNCc3cccc(Br)c3)CC2)nc2ccccc12 [compound 1143] | 3 (Class 3 The value of percent of control at 10^−7 M was more than 60% or the value of IC50 was more than 200 nM.)
COc1cc(OC)c(CNC[C@H]2CC[C@@H](Nc3cc(N(C)C)c4ccccc4n3)CC2)cc1Br [compound 1144] | 2 (Class 2: The value of percent of control at 10^−7 M was from 40% to 60% or the value of IC′50 was from 50 nM to 200 nM.)
COc1ccc(Br)cc1CNC[C@H]1CC[C@@H](Nc2cc(N(C)C)c3ccccc3n2)CC1 [compound 1145] | 3 (Class 3 The value of percent of control at 10^−7 M was more than 60% or the value of IC50 was more than 200 nM.)
